Measured values from patent US20190365673A1, “Immunomodulatory Compounds” (Lankenau Institute for Medical Research, priority 2016, published 2019).

What was measured:
[1] = tested on: BRAF-mutant melanoma tumor; experiment: BRAF-mutant melanoma tumor in mice treated with PLX4720; type: in vivo; details: FIG. 11, PLX4720 alone
Procedure: FIG. 11 provides a graph of tumor volume in mice over time after treatment with PLX4720 alone or PLX4720 with delayed administration of AP and DFMO.
In addition to the above, the efficacy of AP in vivo was also tested.

[2] = tested on: 1205Lu melanoma cells transduced with JARID1B-promoter-EGFP-reporter; experiment: JARID1B-promoter-EGFP reporter in spheroids; type: cell-based, human; details: 2-day exposure, 1205Lu grown as spheroids
Text: Treatment with a BRAF inhibitor such as PLX4720 enriches a slow-cycling cancer stem cell-like (CSC) subpopulation of melanoma cells that is characterized by stem cell markers including JARID1B and spheroid formation (Roesch, et al. (2010) Cell 141(4):583-594; Roesch, et al. (2013) Cancer Cell 23(6):811-825). It is thought that cancer stem cell populations exist in a hypoxic microenvironment (Schwab, et al. (2012) Breast Cancer Res., 14(1):R6; Mathieu, et al. (2011) Cancer Res., 71(13):4640-4652; Mohyeldin, et al. (2010) Cell Stem Cell, 7(2):150-161). Endogenous ROS levels are increased in slow cycling JARID1B^high melanoma cells as a result of increased mitochondrial respiration and oxidative phosphorylation (Roesch, et al. (2013) Cancer Cell 23(6):811-825). […] Using 1205Lu melanoma cells stably transduced with a JARID1B-promoter-EGFP-reporter construct (Roesch, et al.

[3] = tested on: 1205Lu melanoma spheroids; experiment: 3D spheroid culture viability (CellTiter-Glo); type: cell-based, human; details: FIG. 10, 25 μM each drug, 48 h, 3D spheroids on NCPs
Procedure: BRAF^V600E mutant 1205Lu melanoma cells were seeded at 1×10^4 cells in each well of the […] NCPs. When spheroids were formed on day 3, the 3D cultures of spheroids were treated with PLX4720 (25 μM) and/or AP (25 μM). 2D monolayer cultures of 1205Lu melanoma cells were also treated with PLX4720 (25 μM) and/or AP (25 μM). After drug treatment for 48 hours, the viability of spheroids and monolayer cultures was assayed using the CellTiter-Glo Luminescent Cell Viability Assay. The percent cell survival in each treatment group was calculated relative to cells treated with medium only under the same conditions. As controls, the growth of cells without drug treatment under each condition was normalized as 100% separately. The means are presented±SD.
The inorganic nanoscale scaffolding NanoCulture plates (NCP) were purchased from SCIVAX. The base of each NCP is constructed with a transparent cyclo-olefin resinous sheet with a nanoscale indented pattern. To form spheroids, 1205Lu human melanoma cells were seeded in 96-well NCPs at 1×10^4 cells/well in MCDB153 (Sigma)/Leibovitz's L-15 (Cellgro) medium (4:1 ratio) supplemented with 2% heat-inactivated fetal calf serum and 2 mM CaCl2 and incubated in a conventional cell incubator at 37° C. in an atmosphere of 5% CO2 and normal O2 levels. […]

[4] = tested on: BRAF^V600E melanoma cells; details: WM983B, WM3734, 1205Lu, WM989, WM88; read-out: IC50 (cell viability); cited from earlier work
BRAF^WT melanoma cells = details: WM3451, WM3743, WM3211; read-out: IC50 (cell viability); cited from earlier work
[5] = tested on: BRAF^V600E YUMM1.7 melanoma cells; experiment: Cell viability assay (EZQuant), YUMM1.7; type: cell-based, murine; details: FIG. 9B, 72 h
Procedure: (§1) FIG. 9A: Murine BRAF^V600E YUMM1.7 melanoma cells and BRAF^WT B16F10 melanoma cells were treated with increasing doses of AP. After 72 hours of culture, cell survival was determined via EZQuant™ Cell Quantifying assay. IC50 values were calculated by GraphPad Prism 6. FIG. 9B: Murine BRAF^V600E YUMM1.7 melanoma cells and BRAF^WT B16F10 melanoma cells were treated with increasing doses of AP±1 mM DFMO or with PLX4720. After 72 hours of culture, cell survival was determined via EZQuant™ Cell Quantifying assay. IC50 values were calculated by GraphPad Prism 6. […] Cells were washed with cold PBS containing 50 μM spermidine, and cell lysates were assayed for CPM ^3H-spermidine per mg protein by scintillation counting.

[6] = tested on: polyamine transport system (PTS); experiment: Radiolabeled spermidine transport assay, murine melanoma cells; type: cell-based
Procedure: as §1
(§2) Polyamine transport in tumor cells was evaluated essentially as described (Kramer, et al. (1993) J. Cell Physiol., 155(2):399-407; Nilsson, et al. (2005) Cancer Cell 7(5):433-444). Radioactive spermidine (Net-522 Spermidine Trihydrochloride, [Terminal Methylenes-^3H(n)]) from Perkin Elmer was used (specific activity: 16.6 Ci/mmol). Cells were plated in 96 well plates and grown to approximately 80% confluence. Half of the cells were treated with 1 mM DFMO for 40 hours. After repeated washing with PBS, ^3H-spermidine was added at 1 μM and incubated for 60 minutes at 37° C. Cells were then washed with cold PBS containing 50 μM spermidine and lysed in 0.1% SDS at 37° C. for 30 minutes with mixing. Cell lysates were then aliquoted for scintillation counting and for protein assay using a mini-BioRad assay. Results were expressed as CPM/g protein.

[7] = tested on: polyamine transport system (PTS); experiment: Radiolabeled spermidine transport assay, human melanoma cell lines; type: cell-based; details: FIG. 8A, WM983B (BRAF V600E), 1 mM DFMO 40 h
Procedure: as §2

[8] = tested on: B16F10-sTAC melanoma tumors; experiment: B16F10-sTAC melanoma tumor model; details: for polyamine levels in tumors (HPLC): FIG. 1D, compared with vehicle-treated mice; for cytokine levels in tumors: FIG. 3, compared to vehicle treated mice; for B16F10-sTAC tumor growth compared to vehicle: Trimer PTI 3 mg/kg i.p. daily and/or 0.25% DFMO in drinking water
Procedure: FIG. 1A: Mice were subcutaneously injected with 5×10^5 B16F10-sTAC melanoma cells. When tumors were 50-100 mm^3 in size, treatment was initiated with either saline, 0.25% DFMO (w/v) in the drinking water, Trimer PTI (i.p., 3 mg/kg, once a day) or both DFMO and Trimer PTI. […] FIG. 1B: Upon sacrifice, tumors were excised and weighed (mean±SEM). FIG. 1C: Spleen weight was determined upon sacrifice (mean±SEM). FIG. 1D: Polyamine levels were determined in tumors by HPLC and normalized to DNA levels in the tissue extracts (nmol/mg DNA). […] Trimer PTI levels were determined in tumor and skin supernatants by mass spectrometry and normalized to tissue protein concentration (nmol/mg protein). n=5-10 mice per group; *=p≤0.05 and #=p≤0.01 compared to vehicle-treated mice.
Tumor models were established by subcutaneous injections of 5×10^5 B16F10-sTAC cells in C57B16 mice or 5×10^5 CT26.CL25 cells in Balb/c mice. Mice were monitored twice a week for tumor growth. Treatment with 0.25% (w/v) DFMO in the drinking water and the Trimer PTI (3 mg/kg daily by intraperitoneal injection) was initiated when tumors were palpable (50-100 mm^3). For adoptive transfers, spleens were excised and pressed through a nylon filter to obtain a single cell suspension. The resulting suspension was incubated with red cell lysis buffer for 5 minutes to lyse red blood cells. Gr1^+ cells were stained with a PE conjugated antibody and then isolated using anti-PE microbeads (Miltenyi Biotec) as per the manufacturer's instructions. Gr1^+ positive cells were injected into the retro-orbital cavity. Tumor growth was assessed morphometrically using calipers, and tumor volumes were calculated using the formula V (mm^3)=π/6×A×B^2 (A is the larger diameter and B is the smaller diameter).
Upon sacrifice, splenocytes from B16F10-sTAC tumor bearing mice and tumor cell suspensions from CT26.CL25 tumor bearing mice were analyzed for IFN-γ producing cells by enzyme-linked immunosorbent spot (ELISpot) assay. Multiscreen filtration plates (Millipore) were coated with 0.5 μg/mL of purified anti-mouse IFN-γ capture antibody (Biolegend) overnight at 4° C. Single-cell suspensions of splenocytes or tumors were plated at 1×10^6 and 5×10^5 per well respectively. For ELISpot assays with splenocytes from B16F10-sTAC tumor bearing mice, cells were stimulated with the […] (SEQ ID NO: 1) peptide (Anaspec) at […]. […] After 16 hours of stimulation at 37° C., the cells were removed by washing and spots were developed with a biotinylated anti-IFN-γ detection antibody and streptavidin-horseradish peroxidase conjugate followed by NITRO-blue tetrazolium chloride and 5-bromo-4-chloro-3′-indoylphosphate p-toluidine salt substrate (Sigma). Spot numbers were counted, and data were reported as IFN-γ-spot forming cells per 10^6 cells.
Mouse tumor tissues were fixed in 4% paraformaldehyde in PBS overnight and embedded in paraffin. Sections were deparaffinized, hydrated, and then heated in 0.01 mol/L sodium citrate buffer (pH 6.0) in a steamer for 8 minutes. Sections were incubated with the primary antibody (rat monoclonal anti-mouse F4/80 [BioRad MCA497GA]) for 2 hours at room temperature followed by biotinylated secondary and then an avidin HRP complex (Vectastain Elite ABC KIT, Vector Laboratories, INC). Immunoreactive cells were localized by incubating the sections with diaminobenzidine and peroxide and then counterstaining with hematoxylin. Pictures were obtained using a Zeiss Axiophot microscope (Carl Zeiss Inc.) with a digital color camera and corresponding software.
B16F10-sTAC tumors were flash frozen in liquid nitrogen, ground and homogenized in PBS containing 0.5 μM dithiothreitol, 0.5 μM Pefabloc and 8 μg/mL leupeptin. Samples were analyzed for monocyte chemoattractant protein-1 (MCP-1), interleukin-6 (IL-6).

[9] = compared to AMXT1501; cited from earlier work

Row | sensitivity to PLX4720 (IC50 compared to B16F10 cells) [5] | Structure (SMILES) | BRAF-mutant melanoma tumor volume over time [1] | enrichment of JARID1B-driven GFP expressing cells [2] | cell viability of spheroid cultures [3] | IC50 [4] | IC50 (BRAF^WT melanoma cells) | polyamine uptake after DFMO treatment ([6]; B16F10 retrovirally expressing BRAF V600E, 1 mM DFMO) | polyamine uptake after DFMO treatment ([6]; FIG. 9C, B16F10 (BRAF WT), 1 mM DFMO 40 h) | PTS activity after DFMO treatment ([6]; FIG. 9C, YUMM1.7 (BRAF V600E), 1 mM DFMO 40 h) | polyamine transport activity after DFMO treatment [7] | polyamine levels in tumors (HPLC) [8] | cytokine levels in tumors [8] | B16F10-sTAC tumor growth compared to vehicle [8] | water solubility [9] | spleen weight ([8]; FIG. 1C, Trimer PTI with or without DFMO) | accumulation in tumor compared to non-tumor bearing skin (mass spectrometry) ([8]; FIG. 1E, PBT-treated mice)
1 | very sensitive | CCCS(=O)(=O)Nc1ccc(F)c(C(=O)c2c[nH]c3ncc(Cl)cc23)c1F [PLX4720, reference compound] | initially quickly regress but then grow back | 4 fold | more resistant | ≤ 3000 nM | > 3000 nM | – | – | – | – | – | – | – | – | – | –
2 | – | NCCC[C@](N)(C(=O)O)C(F)F [DFMO, α-difluoromethylornithine, reference compound] | – | – | – | – | – | enhance polyamine uptake | no significant induction | marked DFMO-induction of PTS activity | dramatically increased polyamine transport activity | reduced the levels of putrescine | did not significantly alter | only modestly reduced | – | – | –
3 | – | CNCCCCNCCCCNCc1cc(CNCCCCNCCCCNC)cc(CNCCCCNCCCCNC)c1 [Trimer PTI] | – | – | – | – | – | – | – | – | – | no discernible effect | did not significantly alter | only modestly reduced | more water-soluble | no significant effect | 30 fold
